The source made the active and inactive calls. No rule for the calls is given here.
Test system: CCRIS mutagenicity, Ames/micronucleus/aberration tests
Test: CCRIS mutagenicity studies
[1] = Test System: AMES SALMONELLA TYPHIMURIUM, Strain/Indicator: TA98, Metabolic Activation: HAMSTER, LIVER, S-9, AROCLOR 1254 (10 OR 30%), Method: PREINCUBATION
[2] = Test System: AMES SALMONELLA TYPHIMURIUM, Strain/Indicator: TA98, Metabolic Activation: NONE, Method: PREINCUBATION
[3] = Test System: AMES SALMONELLA TYPHIMURIUM, Strain/Indicator: TA98, Metabolic Activation: RAT, LIVER, S-9, AROCLOR 1254 (10 OR 30%), Method: PREINCUBATION
[4] = Test System: AMES SALMONELLA TYPHIMURIUM, Strain/Indicator: TA100, Metabolic Activation: HAMSTER, LIVER, S-9, AROCLOR 1254 (10 OR 30%), Method: PREINCUBATION
[5] = Test System: AMES SALMONELLA TYPHIMURIUM, Strain/Indicator: TA100, Metabolic Activation: NONE, Method: PREINCUBATION
[6] = Test System: AMES SALMONELLA TYPHIMURIUM, Strain/Indicator: TA100, Metabolic Activation: RAT, LIVER, S-9, AROCLOR 1254 (10 OR 30%), Method: PREINCUBATION
[7] = Test System: AMES SALMONELLA TYPHIMURIUM, Strain/Indicator: TA1535, Metabolic Activation: HAMSTER, LIVER, S-9, AROCLOR 1254 (10 OR 30%), Method: PREINCUBATION
[8] = Test System: AMES SALMONELLA TYPHIMURIUM, Strain/Indicator: TA1535, Metabolic Activation: NONE, Method: PREINCUBATION
[9] = Test System: AMES SALMONELLA TYPHIMURIUM, Strain/Indicator: TA1535, Metabolic Activation: RAT, LIVER, S-9, AROCLOR 1254 (10 OR 30%), Method: PREINCUBATION
[10] = Test System: AMES SALMONELLA TYPHIMURIUM, Strain/Indicator: TA1537, Metabolic Activation: NONE, Method: PREINCUBATION
[11] = Test System: AMES SALMONELLA TYPHIMURIUM, Strain/Indicator: TA98, Metabolic Activation: NONE, Method: STANDARD PLATE
[12] = Test System: AMES SALMONELLA TYPHIMURIUM, Strain/Indicator: TA100, Metabolic Activation: NONE, Method: STANDARD PLATE
[13] = Test System: AMES SALMONELLA TYPHIMURIUM, Strain/Indicator: TA98, Metabolic Activation: RAT, LIVER, S-9, AROCLOR 1254, Method: STANDARD PLATE
[14] = Test System: AMES SALMONELLA TYPHIMURIUM, Strain/Indicator: TA100, Metabolic Activation: RAT, LIVER, S-9, AROCLOR 1254, Method: STANDARD PLATE

## CCCCCCCCCc1ccc(OP(=O)(Oc2ccccc2)Oc2ccccc2)cc1
Test System: AMES SALMONELLA TYPHIMURIUM, Strain/Indicator: TA97, Metabolic Activation: HAMSTER, LIVER, S-9, AROCLOR 1254 (5, 10 OR 30%), Method: PREINCUBATION
  mutagenic call: inactive; negative
Test System: AMES SALMONELLA TYPHIMURIUM, Strain/Indicator: TA97, Metabolic Activation: RAT, LIVER, S-9, AROCLOR 1254 (10%), Method: PREINCUBATION
  mutagenic call: inactive; negative
Test System: AMES SALMONELLA TYPHIMURIUM, Strain/Indicator: TA97, Metabolic Activation: RAT, LIVER, S-9, AROCLOR 1254 (30%), Method: PREINCUBATION
  mutagenic call: inactive; negative
[1]
  mutagenic call: inactive; negative
[2]
  mutagenic call: inactive; negative
[3]
  mutagenic call: inactive; negative
[4]
  mutagenic call: inactive; negative
[5]
  mutagenic call: inactive; negative
[6]
  mutagenic call: inactive; negative
[7]
  mutagenic call: inactive; negative
[8]
  mutagenic call: inactive; negative
[9]
  mutagenic call: inactive; negative
Test System: AMES SALMONELLA TYPHIMURIUM, Strain/Indicator: TA1537, Metabolic Activation: HAMSTER, LIVER, S-9, AROCLOR 1254 (5, 10 OR 30%), Method: PREINCUBATION
  mutagenic call: inactive; negative
[10]
  mutagenic call: inactive; negative
Test System: AMES SALMONELLA TYPHIMURIUM, Strain/Indicator: TA1537, Metabolic Activation: RAT, LIVER, S-9, AROCLOR 1254 (5, 10 OR 30%), Method: PREINCUBATION
  mutagenic call: inactive; negative

## [Cl][Sn]([Cl])([Cl])[c]1ccccc1
Test System: AMES SALMONELLA TYPHIMURIUM, Strain/Indicator: TA98, Metabolic Activation: NONE, Method: SUSPENSION/PLATE
  mutagenic call: inactive; negative
Test System: AMES SALMONELLA TYPHIMURIUM, Strain/Indicator: TA100, Metabolic Activation: NONE, Method: SUSPENSION/PLATE
  mutagenic call: inactive; negative

## O=[N+]([O-])c1cc2[nH]c3ccc4ccccc4c3c2c2cc(O)ccc12
[11]
  mutagenic call: inactive; negative
Test System: AMES SALMONELLA TYPHIMURIUM, Strain/Indicator: TA98, Metabolic Activation: RAT, LIVER, S-9, 3-METHYLCHOLANTHRENE, Method: STANDARD PLATE
  mutagenic call: active; positive
[12]
  mutagenic call: active; positive
Test System: AMES SALMONELLA TYPHIMURIUM, Strain/Indicator: TA100, Metabolic Activation: RAT, LIVER, S-9, 3-METHYLCHOLANTHRENE, Method: STANDARD PLATE
  mutagenic call: active; positive

## CC(=O)N(O)c1ccc(C)cc1
[11]
  mutagenic call: inactive; negative
[13]
  mutagenic call: inactive; negative
[12]
  mutagenic call: inactive; negative
[14]
  mutagenic call: inactive; negative

## CCCCCCCCCCCCCl
Test System: AMES SALMONELLA TYPHIMURIUM, Strain/Indicator: TA97, Metabolic Activation: HAMSTER, LIVER, S-9, AROCLOR 1254 (10 OR 30%), Method: PREINCUBATION
  mutagenic call: inactive; negative
Test System: AMES SALMONELLA TYPHIMURIUM, Strain/Indicator: TA97, Metabolic Activation: NONE, Method: PREINCUBATION
  mutagenic call: inactive; negative
Test System: AMES SALMONELLA TYPHIMURIUM, Strain/Indicator: TA97, Metabolic Activation: RAT, LIVER, S-9, AROCLOR 1254 (10 OR 30%), Method: PREINCUBATION
  mutagenic call: inactive; negative
[1]
  mutagenic call: inactive; negative
[2]
  mutagenic call: inactive; negative
[3]
  mutagenic call: inactive; negative
[4]
  mutagenic call: inactive; negative
[5]
  mutagenic call: inactive; negative
[6]
  mutagenic call: inactive; negative
[7]
  mutagenic call: inactive; negative
[8]
  mutagenic call: inactive; negative
[9]
  mutagenic call: inactive; negative
Test System: AMES SALMONELLA TYPHIMURIUM, Strain/Indicator: TA1537, Metabolic Activation: HAMSTER, LIVER, S-9, AROCLOR 1254 (30%), Method: PREINCUBATION
  mutagenic call: inactive; negative
[10]
  mutagenic call: inactive; negative
Test System: AMES SALMONELLA TYPHIMURIUM, Strain/Indicator: TA1537, Metabolic Activation: RAT, LIVER, S-9, AROCLOR 1254 (30%), Method: PREINCUBATION
  mutagenic call: inactive; negative

## C[C@@H](O)[C@H](N)C(=O)O
Test System: AMES SALMONELLA TYPHIMURIUM, Strain/Indicator: TA98, Metabolic Activation: RAT LIVER S-9, CHLOROPHENE, Method: STANDARD PLATE (COMPOUND HEATED AT 250 DEGREES CELSIUS FOR 20 MIN)
  mutagenic call: active; positive

## CN(N=O)C(=O)N[C@@H](C=O)[C@@H](O)[C@H](O)[C@H](O)CO
End Point: IN VITRO CHROMOSOMAL ABERRATIONS, Test System: CHE CELLS, Metabolic Activation: NONE, Method: FISH (METAPHASE)
  mutagenic call: active; positive (structural changes)
Test System: AMES SALMONELLA TYPHIMURIUM, Strain/Indicator: TA97, Metabolic Activation: NONE, Method: STANDARD PLATE
  mutagenic call: active; positive
Test System: AMES SALMONELLA TYPHIMURIUM, Strain/Indicator: TA97, Metabolic Activation: RAT, LIVER, S-9, AROCLOR 1254, Method: STANDARD PLATE
  mutagenic call: inactive; negative
[11]
  mutagenic call: inactive; negative
[13]
  mutagenic call: inactive; negative
[12]
  mutagenic call: active; positive
[14]
  mutagenic call: inactive; negative
Test System: AMES SALMONELLA TYPHIMURIUM, Strain/Indicator: TA1535, Metabolic Activation: NONE, Method: STANDARD PLATE
  mutagenic call: active; positive
Test System: CHINESE HAMSTER OVARY, Strain/Indicator: CHO-9 (HPRT), Metabolic Activation: NONE
  mutagenic call: active; positive
Test System: CHINESE HAMSTER OVARY, Strain/Indicator: CHO-9/OUABAIN, Metabolic Activation: NONE
  mutagenic call: active; positive
Test System: CHINESE HAMSTER OVARY, Strain/Indicator: CHO-K1-BH4 (HGPRT), Metabolic Activation: NONE, Method: SUSPENSION/PLATE
  mutagenic call: active; positive
Test System: CHINESE HAMSTER OVARY, Strain/Indicator: EM-C11 (HPRT), Metabolic Activation: NONE
  mutagenic call: active; positive
Test System: CHINESE HAMSTER OVARY, Strain/Indicator: EM-C11/OUABAIN, Metabolic Activation: NONE
  mutagenic call: active; positive
Test System: CHINESE HAMSTER V-79, Strain/Indicator: V-79/6-THIOGUANINE, Metabolic Activation: NONE, Method: STANDARD PLATE
  mutagenic call: active; positive
Test System: CHINESE HAMSTER V-79, Strain/Indicator: V-79/8-AZAGUANINE, Metabolic Activation: NONE, Method: STANDARD PLATE
  mutagenic call: active; positive
Test System: E. COLI, Strain/Indicator: WP2 (HCR), Metabolic Activation: NONE, Method: STANDARD PLATE
  mutagenic call: active; positive

## O=[N+]([O-])c1cccc2c1-c1ccc3ccc4cccc5cc-2c1c3c45
Test System: AMES SALMONELLA TYPHIMURIUM, Strain/Indicator: TA98, Metabolic Activation: RAT, LIVER, S-9, AROCLOR 1254, Method: PREINCUBATION
  mutagenic call: active; positive
Test System: AMES SALMONELLA TYPHIMURIUM, Strain/Indicator: TA100, Metabolic Activation: RAT, LIVER, S-9, AROCLOR 1254, Method: PREINCUBATION
  mutagenic call: active; positive

## Cc1c2ccccc2cc2c3c(ccc12)C(O)C(O)[C@@H]1O[C@@H]31 (some centres not stated)
[2]
  mutagenic call: active; positive
[5]
  mutagenic call: active; positive
Test System: CHINESE HAMSTER V-79, Strain/Indicator: V-79/6-THIOGUANINE, Metabolic Activation: NONE
  mutagenic call: active; positive

Source: PubChem BioAssay AID1259407 (Chemical Carcinogenesis Research Information System (CCRIS), 2018)
